“And” between values parts separate entries of the source, which are not always exact repeats. Equal values may be shown once.
Key:
MASP-1 CUB2 = target: T1, MASP-1 CUB2 (Rattus norvegicus, UniProt Q8CHN8); experiment: Isothermal titration calorimetry of Ca2+ binding to MASP-1 CUB2; conditions: ITC, two independent experiments
T1 construct: MASP-1 CUB2 (residues E165-A277 of the mature polypeptide, isoform 1); made in house; host or cells: E. coli BL21 DE3
T1 sequence (Q8CHN8 189-301): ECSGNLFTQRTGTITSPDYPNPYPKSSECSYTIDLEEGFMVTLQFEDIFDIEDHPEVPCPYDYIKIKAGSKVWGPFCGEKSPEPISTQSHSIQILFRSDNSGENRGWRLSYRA
Experimental: The CUB2 domain was made calcium free by EDTA treatment and dialyzed extensively into 50 mM Tris/HCl, pH 7.4 containing 150 mM NaCl. Freshly prepared 2 mM CaCl2 in the same batch of assay buffer was titrated into CUB2 domain (114 μM) in the cell of a VP-isothermal titration calorimeter (Microcal) equilibrated at 25° C. The data were fitted to a 1:1 binding model using the Origin software supplied by the manufacturer, after subtraction of the heats of dilution of the calcium. Because binding was weak, the experiment was carried out under low ‘c-value’ conditions (where the concentration of the protein in the cell is lower than that of the KD).

[1] = target: T2, MASP-1 binding to immobilized MBL (Rattus norvegicus, UniProt Q8CHN8, H450D/I451D/K449D/R453K/S452D); experiment: Surface plasmon resonance inhibition of MASP-1 binding to immobilized MBL; conditions: for Inhibition of MBL/MASP-1 binding (in words): full-length MBL/MASP-1 complexes
T2 construct: made in house
T2 sequence (Q8CHN8 25-704 K449D/H450D/I451D/S452D/R453K): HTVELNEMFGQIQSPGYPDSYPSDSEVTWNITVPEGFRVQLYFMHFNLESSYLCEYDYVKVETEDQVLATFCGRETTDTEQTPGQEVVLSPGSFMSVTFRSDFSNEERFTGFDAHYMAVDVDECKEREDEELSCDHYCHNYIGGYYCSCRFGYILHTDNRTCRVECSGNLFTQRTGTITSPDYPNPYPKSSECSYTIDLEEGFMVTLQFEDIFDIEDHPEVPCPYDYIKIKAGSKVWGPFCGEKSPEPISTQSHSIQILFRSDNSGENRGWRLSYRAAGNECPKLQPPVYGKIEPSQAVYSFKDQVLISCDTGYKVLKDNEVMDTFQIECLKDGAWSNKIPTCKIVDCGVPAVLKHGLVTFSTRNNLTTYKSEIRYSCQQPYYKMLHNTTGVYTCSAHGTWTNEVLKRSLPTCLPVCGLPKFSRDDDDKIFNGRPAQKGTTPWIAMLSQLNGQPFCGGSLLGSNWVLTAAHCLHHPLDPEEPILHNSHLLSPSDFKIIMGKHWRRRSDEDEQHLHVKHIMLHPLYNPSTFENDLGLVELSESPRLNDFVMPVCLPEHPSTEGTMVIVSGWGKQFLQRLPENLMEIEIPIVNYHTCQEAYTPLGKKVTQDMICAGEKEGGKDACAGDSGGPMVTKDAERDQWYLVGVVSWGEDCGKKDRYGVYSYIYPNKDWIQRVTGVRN
Experimental: Rat MBL-A (referred to as MBL throughout) was produced as described previously. (Wallis and Drickamer, supra (1999)). MASP-1ent (referred to as MASP-1) is a modified form of rat MASP-1 in which the zymogen cleavage site has been replaced by an enterokinase recognition site (DDDDK; SEQ ID NO: 4). […] (Chen and Wallis (2004)). […] (Persikov et al., J Biol Chem 280:19343-19349 (2005)).
MBL (0.025 mg/ml) was immobilized onto the surface of a GLM sensor chip (˜10,000 response units) at pH 4.5, using amine-coupling chemistry. Binding to CUB2 was measured on a ProteOn® XPR36 (BioRad) in 10 mM Tris/HCl pH 7.4, containing 140 mM NaCl, 5 mM Ca^2+ and 0.005% Tween-20 at 25° C., at a flow rate of 25 μL/min. For inhibition assays, MBL was immobilized on to a CM-5 sensor chip (14,000 response units) and binding was measured on a Biacore® 2000 (GE Healthcare) in 20 mM Tris/HCl pH 7.4, containing 140 mM NaCl, 5 mM Ca^2+, and 0.005% SP-20. MASP-1 (100 nM) was premixed with inhibitor and flowed over the chip surface at a rate of 5 μL/min at 25° C. Changes in response units caused by differences in sample composition were subtracted from all data. To account for changes in ionic strength of the buffer due to the inhibitor, binding was measured in the presence of equivalent concentrations of NaCl.

[2] = system: lectin pathway complement activation; experiment: Lectin pathway specific complement activation (Wieslab MBL pathway kit, membrane-attack complex deposition on mannan-coated plates); assay type: biochemical; conditions: three independent experiments, read-out: IC50, inhibition of lectin pathway complement activation
Experimental: Lectin pathway specific complement activation was measured using the Wieslab® MBL pathway kit (Euro-Diagnostica), which measures deposition of the membrane attack complexes on a mannan-coated plate. The lectin pathway is functional, even under conditions of high ionic strength (1M NaCl). (Petersen et al., J Immunol Methods 257:107-116 (2001)).

MBL = MBL (Rattus norvegicus, UniProt P19999); conditions: read-out: Affinity of full-size MASP-1 binding to MBL; cited from earlier work

In the case of `[Ca+2].[Cl-].[Cl-]` [Ca^2+, CaCl2], the Kd (MASP-1 CUB2; single Ca2+ site model, 25° C.) is reported as 0.49 mM and 0.5 mM and the “ΔH of Ca2+ binding to MASP-1 CUB2” value (MASP-1 CUB2) is reported as -1.1 ± 0.14 kcal/mol.

In the case of `[Cl-].[Na+]` [NaCl], the “Binding of MASP-1 to MBL, % of maximal” value ([1]; ionic strength control, all NaCl concentrations tested (up to 550 mM)) is reported as greater than 60%.

With `CCN` [ethylamine] the “Inhibition of MBL/MASP-1 binding (in words)” value [1] was “inhibitors”.

With `NCCCC[C@H](N)C(=O)O` [lysine] the IC50 [2] was 25 mM and ~25 mM and the IC50 ([1]; SPR, MASP-1 100 nM premixed with inhibitor, 25° C., three independent experiments) was 49 mM and ~50 mM.

For `CN` [methylamine], the “Inhibition of MBL/MASP-1 binding (in words)” value [1] was “inhibitors”.

B1: MASP-1: full-size MBL-associated serine protease 1 (protein, UniProt Q8CHN8 1-704, looked up)
chain: MRFLSFRRLLLYHVLCLTLTEVSAHTVELNEMFGQIQSPGYPDSYPSDSEVTWNITVPEGFRVQLYFMHFNLESSYLCEYDYVKVETEDQVLATFCGRETTDTEQTPGQEVVLSPGSFMSVTFRSDFSNEERFTGFDAHYMAVDVDECKEREDEELSCDHYCHNYIGGYYCSCRFGYILHTDNRTCRVECSGNLFTQRTGTITSPDYPNPYPKSSECSYTIDLEEGFMVTLQFEDIFDIEDHPEVPCPYDYIKIKAGSKVWGPFCGEKSPEPISTQSHSIQILFRSDNSGENRGWRLSYRAAGNECPKLQPPVYGKIEPSQAVYSFKDQVLISCDTGYKVLKDNEVMDTFQIECLKDGAWSNKIPTCKIVDCGVPAVLKHGLVTFSTRNNLTTYKSEIRYSCQQPYYKMLHNTTGVYTCSAHGTWTNEVLKRSLPTCLPVCGLPKFSRKHISRIFNGRPAQKGTTPWIAMLSQLNGQPFCGGSLLGSNWVLTAAHCLHHPLDPEEPILHNSHLLSPSDFKIIMGKHWRRRSDEDEQHLHVKHIMLHPLYNPSTFENDLGLVELSESPRLNDFVMPVCLPEHPSTEGTMVIVSGWGKQFLQRLPENLMEIEIPIVNYHTCQEAYTPLGKKVTQDMICAGEKEGGKDACAGDSGGPMVTKDAERDQWYLVGVVSWGEDCGKKDRYGVYSYIYPNKDWIQRVTGVRN
modifications: full-length
In the case of B1, the Kd (MBL) is given as 10 to 100 nM.

Reference: patent US8795973B2, “Methods for identifying inhibitors of mannan-binding lectin associated serine protease (MASP) proteins and uses thereof” (University of Leceister, priority 2010, dated 2014)
